Experimental data: the NIST ThermoML archive (doi:10.1016/j.tca.2015.07.010)
± gives the expanded uncertainty stated by the source.

SMILES: O=NN1CN(N=O)CN(N=O)C1 [1,3,5-trinitroso-1,3,5-triazacyclohexane]
- Triple point temperature (Crystal 1): 380.15 ± 2 K
- Triple point temperature (Crystal 2): 369.25 ± 2 K
